# Read-outs that look alike come from different tables or passages of the source.
# Assays:
# P. aeruginosa ATCC 27853 [1] = assay: murine septicemia model of infection, P. aeruginosa; assay type: in vivo; settings: mice inoculated IP, single SC or IV dose 1 hour after challenge, mortality 7 days; ED50 values are mg/kg
# Experimental: (§1) Two models were run on each compound, using E. coli and P. aeruginosa QC bacterial strains. Both studies employed the same design. […] At 1 hour after bacterial challenge, the mice received a single SC or IV […] dose of vehicle or test substance to assess in vivo anti-infective activity. Mortality was recorded once daily for 7 days after bacterial inoculation.
# P. aeruginosa ATCC 27853 [2] = assay: MIC assay, CLSI broth microdilution, P. aeruginosa ATCC 27853 (APAE001); assay type: cell-based; settings: for MIC: Pseudomonas aeruginosa
# In short: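 Test compounds were diluted two-fold at 2× strength in Mueller Hinton Broth, then combined 1:1 with saline-suspended bacteria from an overnight agar colony to reach 5×10^5 CFU/mL. Incubation followed at 35° C. for 20 hours in ambient air, per CLSI reference methods.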
# E. coli ATCC 25922 [3] = assay: murine septicemia model of infection, E. coli; assay type: in vivo; settings: mice inoculated IP, single SC or IV dose 1 hour after challenge, mortality 7 days; ED50 values are mg/kg
# Experimental: as §1
# E. coli ATCC 25922 [4] = assay: MIC assay, CLSI broth microdilution, E. coli ATCC 25922 (AECO001); assay type: cell-based; settings: for MIC: Escherichia coli
# In short: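 CLSI broth microdilution (M7-A7): two-fold compound dilutions in Mueller Hinton Broth, inoculum 5×10^5 CFU/mL final. Plates incubated 20 hours at 35° C. in ambient air; MIC read as lowest inhibitory concentration.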
# [5] = ATCC27853, Table 2, read-out: MIC P. aeruginosa
# [6] = APAE001 is ATCC27853, 35° C., 20 hours, read-out: MIC APAE001
# [7] = AECO001 is ATCC25922, 35° C., 20 hours, read-out: MIC AECO001
Compound,ED50/MIC P. aeruginosa (P. aeruginosa ATCC 27853 [1]),MIC (P. aeruginosa ATCC 27853 [2]; [5]) [µg/mL],ED50/MIC E. Coli (E. coli ATCC 25922 [3]),"MIC (E. coli ATCC 25922 [4]; ATCC25922, Table 2, read-out: MIC E. coli) [µg/mL]",MIC (P. aeruginosa ATCC 27853 [2]; [6]) [µg/mL],MIC (E. coli ATCC 25922 [4]; [7]) [µg/mL],MIC P. aeruginosa (P. aeruginosa ATCC 27853 [2]; Table 2),MIC E. coli (E. coli ATCC 25922 [4]; Table 2)
"NCC[C@H](O)C(=O)N[C@@H]1C[C@H](N)[C@@H](O[C@H]2O[C@H](CN)[C@@H](O)[C@H](O)[C@H]2O)[C@H](O)[C@H]1O[C@H]1O[C@H](CO)[C@@H](O)[C@H](N)[C@H]1O [Amikacin, amikacin, reference compound]",13,1 to 16,1.5,1 to 16,,,,
"CN[C@@H]1[C@@H](O)[C@@H](O[C@@H]2[C@@H](O)[C@H](O[C@H]3OC(CNCCO)=CC[C@H]3N)[C@@H](N)C[C@H]2NC(=O)[C@@H](O)CCN)OC[C@]1(C)O [Example 1, 6′-(2-Hydroxy-ethyl)-1-(4-amino-2(S)-hydroxy-butyryl)-sisomicin]",4,1 to 16,<2,,1 to 16,< 1,,
"CN[C@@H]1[C@@H](O)[C@@H](O[C@@H]2[C@@H](O)[C@H](O[C@H]3OC(CNCCO)=CC[C@H]3N)[C@@H](N)C[C@H]2NC(=O)[C@@H](O)CN)OC[C@]1(C)O [Example 16, 6′-(2-Hydroxy-ethyl)-1-(3-amino-2(S)-hydroxy-propionyl)-sisomicin]",3,1 to 16,1,,1 to 16,< 1,,
"CN[C@@H]1[C@@H](O)[C@@H](O[C@@H]2[C@@H](O)[C@H](O[C@H]3OC(CNCCCN)=CC[C@H]3N)[C@@H](N)C[C@H]2NC(=O)[C@@H](O)CN)OC[C@]1(C)O [Example 17, 6′-(3-Amino-propyl)-1-(3-amino-2(S)-hydroxy-propionyl)-sisomicin]",5,1 to 16,1,,1 to 16,< 1,,
"CN[C@@H]1[C@@H](O)[C@@H](O[C@@H]2[C@@H](O)[C@H](O[C@H]3OC(CNCC(O)CN)=CC[C@H]3N)[C@@H](N)C[C@H]2NC(=O)[C@@H](O)CN)OC[C@]1(C)O (stereo partly drawn) [Example 22, 6′-(3-Amino-2-hydroxy-propyl)-1-(3-amino-2(S)-hydroxy-propionyl)-sisomicin]",8,1 to 16,1,,1 to 16,1 to 16,,
CN[C@@H]1[C@@H](O)[C@@H](O[C@@H]2[C@@H](O)[C@H](O[C@H]3OC(CNCCCN)=CC[C@H]3N)[C@@H](N)C[C@H]2NC(=O)C2(O)CNC2)OC[C@]1(C)O [Example 57],14,< 1,2,,< 1,< 1,,
"CN[C@@H]1[C@@H](O)[C@@H](O[C@@H]2[C@@H](O)[C@H](O[C@H]3OC(CN)=CC[C@H]3NC(=N)N)[C@@H](N)C[C@H]2NC(=O)[C@@H](O)CCN)OC[C@]1(C)O [Example 103, 2′-Guanidinium-1-(4-amino-2(S)-hydroxy-butyryl)-sisomicin]",6,< 1,2,,< 1,< 1,,
gentamicin [reference compound],12,,2.4,,,,A (MIC's of 1.0 μg/mL or less = A),A (MIC's of 1.0 μg/mL or less = A)

# Source: patent US11117915B2, “Antibacterial aminoglycoside analogs” (Cipla USA, Inc., priority 2007, dated 2021)
